Literature values as cited in patent publication US20220088213A1, “DRUG DELIVERY SYSTEM USING PH-DEPENDENT CELL-PENETRATING PEPTIDES, AND COMPOSITE THEREOF WITH DRUG” (priority 2019, published 2022).
Where two headings read alike, the source gives them in different places.

Test system: cell membrane
Details: cited from earlier work

ATRAM (GLAGLAGLLGLEGLLGLPLGLLEGLWLGLELEGN; Penetrating Peptide)
cell-penetrating activity (pH dependence): exhibits cell-penetrating activity only at a slightly acidic pH

GALA
cell membrane penetration (acidic pH conditions): penetrates a cell membrane
cell membrane penetration (neutral pH): cannot penetrate the cell membrane
